# According to US20100137449A1, “SUBSTITUTED 1,3-CYCLOPENTADIONE MULTI-TARGET PROTEIN KINASE MODULATORS OF CANCER, ANGIOGENESIS AND THE INFLAMMATORY PATHWAYS ASSOCIATED THEREWITH” (METAPROTEOMICS, LLC, priority 2007, published 2010):
# Assays:
# Assay in all cases: KinaseProfiler Assay
# [1] = target: NEK6(h) (Homo sapiens, UniProt Q9HC98)
# [2] = target: T1, PKCε(h) (Homo sapiens, UniProt Q02156)
# T1 sequence (Q02156 1-737): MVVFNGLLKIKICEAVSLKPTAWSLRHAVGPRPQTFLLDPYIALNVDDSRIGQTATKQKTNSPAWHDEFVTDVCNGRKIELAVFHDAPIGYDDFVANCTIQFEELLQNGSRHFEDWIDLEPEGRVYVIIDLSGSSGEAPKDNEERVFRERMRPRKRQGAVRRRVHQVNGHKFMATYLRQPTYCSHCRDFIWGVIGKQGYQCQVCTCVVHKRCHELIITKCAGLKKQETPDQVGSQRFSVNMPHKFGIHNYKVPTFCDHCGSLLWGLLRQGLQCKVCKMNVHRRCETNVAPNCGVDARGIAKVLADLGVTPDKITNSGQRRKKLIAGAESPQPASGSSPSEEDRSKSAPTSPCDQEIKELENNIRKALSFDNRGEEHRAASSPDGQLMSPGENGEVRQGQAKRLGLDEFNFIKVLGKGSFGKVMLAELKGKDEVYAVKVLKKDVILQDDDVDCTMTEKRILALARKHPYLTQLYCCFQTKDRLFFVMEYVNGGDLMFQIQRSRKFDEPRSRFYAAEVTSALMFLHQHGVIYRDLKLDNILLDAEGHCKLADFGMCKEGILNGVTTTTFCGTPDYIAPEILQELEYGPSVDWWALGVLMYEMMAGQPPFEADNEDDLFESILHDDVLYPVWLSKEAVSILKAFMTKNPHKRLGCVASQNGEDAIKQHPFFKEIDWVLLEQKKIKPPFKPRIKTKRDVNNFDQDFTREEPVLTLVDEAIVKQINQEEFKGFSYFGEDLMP
# [3] = target: P70S6K(h) (Homo sapiens, UniProt P23443)
# Sequence of P70S6K(h) (P23443 whole entry): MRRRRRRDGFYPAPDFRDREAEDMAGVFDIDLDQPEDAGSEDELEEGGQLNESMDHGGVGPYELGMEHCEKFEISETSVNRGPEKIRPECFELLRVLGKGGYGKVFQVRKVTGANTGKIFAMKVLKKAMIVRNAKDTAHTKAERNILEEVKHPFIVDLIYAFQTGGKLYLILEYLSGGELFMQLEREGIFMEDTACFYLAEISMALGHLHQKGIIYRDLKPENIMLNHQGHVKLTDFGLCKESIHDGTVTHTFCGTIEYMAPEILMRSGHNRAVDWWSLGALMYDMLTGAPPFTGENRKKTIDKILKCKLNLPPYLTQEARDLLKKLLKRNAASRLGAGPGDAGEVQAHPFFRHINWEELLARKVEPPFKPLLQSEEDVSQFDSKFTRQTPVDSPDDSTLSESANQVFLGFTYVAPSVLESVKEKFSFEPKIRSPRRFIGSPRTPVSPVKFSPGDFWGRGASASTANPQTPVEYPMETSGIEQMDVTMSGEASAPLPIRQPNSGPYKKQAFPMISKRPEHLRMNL
# [4] = target: T2, PhKγ2(h) (Homo sapiens, UniProt P15735)
# T2 sequence (P15735 1-406): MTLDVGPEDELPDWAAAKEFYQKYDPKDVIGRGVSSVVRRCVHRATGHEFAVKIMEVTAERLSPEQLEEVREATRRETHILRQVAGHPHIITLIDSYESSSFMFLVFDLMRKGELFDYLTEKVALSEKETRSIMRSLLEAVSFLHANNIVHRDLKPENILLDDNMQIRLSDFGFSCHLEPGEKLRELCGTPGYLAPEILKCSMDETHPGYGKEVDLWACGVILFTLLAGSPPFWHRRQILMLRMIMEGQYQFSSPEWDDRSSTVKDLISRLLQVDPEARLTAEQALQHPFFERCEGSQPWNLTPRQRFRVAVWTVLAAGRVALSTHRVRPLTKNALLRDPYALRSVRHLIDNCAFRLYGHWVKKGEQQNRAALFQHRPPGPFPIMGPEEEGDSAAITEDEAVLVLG
# [5] = target: T3, MKK7β(h) (Homo sapiens, UniProt O14733)
# T3 sequence (O14733 1-419): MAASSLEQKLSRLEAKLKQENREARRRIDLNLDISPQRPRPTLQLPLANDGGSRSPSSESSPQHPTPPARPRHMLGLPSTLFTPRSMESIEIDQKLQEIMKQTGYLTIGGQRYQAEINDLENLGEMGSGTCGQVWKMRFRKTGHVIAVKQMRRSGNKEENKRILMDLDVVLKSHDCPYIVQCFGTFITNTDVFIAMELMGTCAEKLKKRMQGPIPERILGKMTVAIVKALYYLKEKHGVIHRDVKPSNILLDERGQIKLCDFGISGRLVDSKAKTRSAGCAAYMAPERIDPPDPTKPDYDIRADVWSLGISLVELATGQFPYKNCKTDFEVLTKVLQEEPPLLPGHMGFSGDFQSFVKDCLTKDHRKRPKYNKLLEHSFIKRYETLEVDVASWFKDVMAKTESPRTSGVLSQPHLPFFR
# [6] = target: JNK3(h) (Homo sapiens, UniProt P53779)
# Sequence of JNK3(h) (P53779 whole entry): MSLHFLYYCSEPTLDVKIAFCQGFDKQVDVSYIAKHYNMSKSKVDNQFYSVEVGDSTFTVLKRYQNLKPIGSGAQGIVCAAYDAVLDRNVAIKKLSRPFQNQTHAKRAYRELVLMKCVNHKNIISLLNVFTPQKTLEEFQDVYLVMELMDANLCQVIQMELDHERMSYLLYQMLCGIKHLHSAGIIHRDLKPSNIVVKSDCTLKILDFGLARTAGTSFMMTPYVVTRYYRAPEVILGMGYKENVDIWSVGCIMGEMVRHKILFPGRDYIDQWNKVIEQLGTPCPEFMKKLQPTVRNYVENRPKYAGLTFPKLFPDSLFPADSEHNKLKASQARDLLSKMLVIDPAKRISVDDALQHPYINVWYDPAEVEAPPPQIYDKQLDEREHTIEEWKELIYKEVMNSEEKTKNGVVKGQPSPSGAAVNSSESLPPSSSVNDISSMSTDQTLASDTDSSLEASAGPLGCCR
# [7] = target: Abl(T315I)(h) (Homo sapiens, UniProt P00519, T315I)
# [8] = target: Pim-2(h) (Homo sapiens, UniProt Q9P1W9)
# Sequence of Pim-2(h) (Q9P1W9 whole entry): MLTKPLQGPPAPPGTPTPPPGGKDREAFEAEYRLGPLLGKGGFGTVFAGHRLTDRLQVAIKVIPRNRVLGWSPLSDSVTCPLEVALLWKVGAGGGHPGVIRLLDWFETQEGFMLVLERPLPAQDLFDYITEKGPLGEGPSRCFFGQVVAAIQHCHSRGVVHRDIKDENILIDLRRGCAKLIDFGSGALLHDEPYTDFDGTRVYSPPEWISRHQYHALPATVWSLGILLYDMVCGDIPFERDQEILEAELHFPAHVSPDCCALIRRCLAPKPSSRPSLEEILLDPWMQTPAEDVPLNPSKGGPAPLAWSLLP
# [9] = target: GSK3β(h) (Homo sapiens, UniProt P49841)
# Sequence of GSK3β(h) (P49841 whole entry): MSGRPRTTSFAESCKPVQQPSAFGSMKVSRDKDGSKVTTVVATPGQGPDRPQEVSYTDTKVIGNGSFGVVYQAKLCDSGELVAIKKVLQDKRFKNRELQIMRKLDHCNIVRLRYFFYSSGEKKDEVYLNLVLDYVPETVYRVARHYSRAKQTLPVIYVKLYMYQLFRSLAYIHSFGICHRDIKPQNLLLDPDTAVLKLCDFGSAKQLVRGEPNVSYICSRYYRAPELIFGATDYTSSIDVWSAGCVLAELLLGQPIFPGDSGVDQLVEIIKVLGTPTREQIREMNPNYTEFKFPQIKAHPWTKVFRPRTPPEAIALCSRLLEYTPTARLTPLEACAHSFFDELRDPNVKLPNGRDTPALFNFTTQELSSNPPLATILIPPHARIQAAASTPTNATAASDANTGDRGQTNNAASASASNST
# [10] = target: FGFR3(h) (Homo sapiens, UniProt P22607)
# Sequence of FGFR3(h) (P22607 23-806): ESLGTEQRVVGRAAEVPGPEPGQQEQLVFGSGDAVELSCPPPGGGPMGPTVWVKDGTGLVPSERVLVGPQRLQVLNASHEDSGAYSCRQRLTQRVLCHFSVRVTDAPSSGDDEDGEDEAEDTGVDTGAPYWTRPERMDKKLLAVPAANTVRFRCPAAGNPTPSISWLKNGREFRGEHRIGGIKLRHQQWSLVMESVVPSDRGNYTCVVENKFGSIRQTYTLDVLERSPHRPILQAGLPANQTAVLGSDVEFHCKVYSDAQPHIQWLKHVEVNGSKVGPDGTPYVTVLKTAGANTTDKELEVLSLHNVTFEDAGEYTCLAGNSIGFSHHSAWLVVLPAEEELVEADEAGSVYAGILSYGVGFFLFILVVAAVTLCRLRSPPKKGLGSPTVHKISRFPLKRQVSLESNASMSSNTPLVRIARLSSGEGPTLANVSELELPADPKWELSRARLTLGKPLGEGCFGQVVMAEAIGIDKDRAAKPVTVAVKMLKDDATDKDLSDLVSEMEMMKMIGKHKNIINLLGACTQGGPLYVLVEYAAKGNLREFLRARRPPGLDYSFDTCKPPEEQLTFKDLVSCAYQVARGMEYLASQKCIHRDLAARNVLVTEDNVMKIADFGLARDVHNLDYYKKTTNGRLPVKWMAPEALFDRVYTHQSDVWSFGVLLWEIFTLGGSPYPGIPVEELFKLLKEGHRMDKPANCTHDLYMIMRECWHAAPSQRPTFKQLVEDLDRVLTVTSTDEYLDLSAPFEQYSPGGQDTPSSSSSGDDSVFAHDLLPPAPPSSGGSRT
# Sequence of NEK6(h) (Q9HC98 whole entry): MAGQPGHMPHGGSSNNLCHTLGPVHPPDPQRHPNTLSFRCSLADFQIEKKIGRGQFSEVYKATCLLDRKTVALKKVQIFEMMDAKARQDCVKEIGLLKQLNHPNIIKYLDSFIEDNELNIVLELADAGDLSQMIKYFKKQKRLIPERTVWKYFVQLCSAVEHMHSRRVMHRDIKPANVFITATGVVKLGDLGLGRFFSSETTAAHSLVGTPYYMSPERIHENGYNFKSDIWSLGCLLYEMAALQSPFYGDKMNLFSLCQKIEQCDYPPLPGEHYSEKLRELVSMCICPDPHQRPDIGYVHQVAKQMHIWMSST
smiles,measurement,setting,value
"CC(C)CCC(=O)[C@]1(O)C(O)=C(C(=O)C(C)C)C(=O)[C@H]1CCC(C)C [TH2, tetrahydroiso-cohumulone]",kinase inhibition,[1]; 1 μg/ml,103% of control
same,kinase inhibition,[1]; 5 μg/ml,100% of control
same,kinase inhibition,[1]; 25 μg/ml,79% of control
same,kinase inhibition,[1]; 50 μg/ml,67% of control
same,kinase inhibition,[1]; 100 μg/ml,53% of control
same,kinase inhibition,[2]; 1 μg/ml,105% of control
same,kinase inhibition,[2]; 5 μg/ml,102% of control
same,kinase inhibition,[2]; 25 μg/ml,98% of control
same,kinase inhibition,[2]; 50 μg/ml,102% of control
same,kinase inhibition,[2]; 100 μg/ml,90% of control
same,kinase inhibition,[3]; 1 μg/ml,108% of control
same,kinase inhibition,[3]; 5 μg/ml,108% of control
same,kinase inhibition,[3]; 25 μg/ml,108% of control
same,kinase inhibition,[3]; 50 μg/ml,92% of control
same,kinase inhibition,[3]; 100 μg/ml,69% of control
same,kinase inhibition,[4]; 1 μg/ml,112% of control
same,kinase inhibition,[4]; 5 μg/ml,116% of control
same,kinase inhibition,[4]; 25 μg/ml,114% of control
same,kinase inhibition,[4]; 50 μg/ml,88% of control
same,kinase inhibition,[4]; 100 μg/ml,63% of control
same,kinase inhibition,[5]; 1 μg/ml,100% of control
same,kinase inhibition,[5]; 5 μg/ml,110% of control
same,kinase inhibition,[5]; 25 μg/ml,111% of control
same,kinase inhibition,[5]; 50 μg/ml,82% of control
same,kinase inhibition,[5]; 100 μg/ml,72% of control
same,kinase inhibition,[6]; 1 μg/ml,110% of control
same,kinase inhibition,[6]; 5 μg/ml,108% of control
same,kinase inhibition,[6]; 25 μg/ml,80% of control
same,kinase inhibition,[6]; 50 μg/ml,92% of control
same,kinase inhibition,[6]; 100 μg/ml,88% of control
same,kinase inhibition,[7]; 1 μg/ml,102% of control
same,kinase inhibition,[7]; 5 μg/ml,98% of control
same,kinase inhibition,[7]; 25 μg/ml,79% of control
same,kinase inhibition,[7]; 50 μg/ml,68% of control
same,kinase inhibition,[7]; 100 μg/ml,58% of control
same,kinase inhibition,[8]; 1 μg/ml,103% of control
same,kinase inhibition,[8]; 5 μg/ml,111% of control
same,kinase inhibition,[8]; 25 μg/ml,77% of control
same,kinase inhibition,[8]; 50 μg/ml,73% of control
same,kinase inhibition,[8]; 100 μg/ml,67% of control
same,kinase inhibition,[9]; 1 μg/ml,98% of control
same,kinase inhibition,[9]; 5 μg/ml,86% of control
same,kinase inhibition,[9]; 25 μg/ml,55% of control
same,kinase inhibition,[9]; 50 μg/ml,44% of control
same,kinase inhibition,[9]; 100 μg/ml,40% of control
same,kinase inhibition,[10]; 1 μg/ml,94% of control
same,kinase inhibition,[10]; 5 μg/ml,92% of control
same,kinase inhibition,[10]; 25 μg/ml,67% of control
same,kinase inhibition,[10]; 50 μg/ml,64% of control
same,kinase inhibition,[10]; 100 μg/ml,51% of control
